Laboratory results: patent US9181265B2, “Substituted 2,3-dihydro-1H-benzo[a]pyrano[2,3-c]phenazines as anti-angiogenic and anti-cancer agents” (UNIVERSITE CATHOLIQUE DE LOUVAIN, priority 2010, dated 2015)
Like-named read-outs stand apart in the source and are kept apart here. Marks after values point to notes of the source that are not given here.

What was measured:
[1] = system: Human umbilical vein endothelial cells (HUVEC); assay: MTT test of overall cell growth, endothelial cells, normoxic or hypoxic conditions; format: cell-based; conditions: for Selectivity: if u.t.d., ratio of activity at 100 μM
Method: (§1) MTT tests were performed in order to rapidly, i.e. within 3 days, measure the effect of compounds of this invention on the overall cell growth. The test measured the number of metabolically active living cells that were able to transform the yellow product 3-(4,5-dimethylthiazol-2-yl)-2,5-diphenyl tetrazolium bromide (herein referred as MTT) into the blue product formazan dye by mitochondrial reduction. The amount of formazan obtained at the end of the experiment, measured by means of a spectrophotometer (Plate Reader Victor X4 Microplate reader (Perkin Elmer), is directly proportional to the number of living cells. Optical density determination thus enabled a quantitative measurement of the effect of the investigated compounds under control conditions (normoxia) as compared to the hypoxic conditions (0.1 or 1% O2) and/or untreated conditions.
(§2) Human umbilical vein endothelial cells (HUVEC) and six human cancer cell lines were used in the MTT tests. These cancer cell lines cover five histological cancer types including cervix (SiHa), breast (MCF-7 and MDA-MB231), prostate (PC3), glioma (U373), and colorectal (LoVo) cancers.
(§3) To perform the assay, cells were allowed to grow in 96-well microplates with a flat bottom following addition of an amount of 100 μl of cell suspension per well with 4,500 cells/well. Each cell line was seeded in its appropriate culture medium. HUVEC were cultured in a specific endothelial cell growth medium (ECACC, Sigma); SiHa cells in Glutamax-containing DMEM with 4.5 g/1 glucose (Invitrogen) supplemented with 10% Foetal Bovine Serum (PAA) and 1% penicillin+streptomycin mix (Invitrogen); MCF-7, MDA-MB-231, PC3, and LoVo cells in Glutamax-containing RPMI supplemented with 10% Foetal Bovine Serum (PAA) and 1% penicillin+streptomycin mix (Invitrogen) and U373 cells in Glutamax-containing DMEM (Invitrogen) with 5% Foetal Bovine Serum (PAA) and 1% penicillin+streptomycin mix (Invitrogen).
(§4) The detailed experimental procedure was the following: after a 24-hour period of incubation at 37° C., the culture medium was replaced by 100 μl of fresh medium in which the tested compound was previously dissolved, at the following concentrations: 10^−8 M, 5.10^−8, 10^−7, 5.10^−7, 10^−6, 5.10^−6, 10^−5, 5.10^−5 and 10^−[…]. Each experiment was performed in sestuplicates (6 times).
(§5) Cells were then incubated under normoxia in a Binder incubator (the O2 level corresponding to the concentration in the ambient air), or in a Ruskin hypoxia workstation under either 0.1% O2 (v/v) or 1% O2 (v/v). Under both conditions, the atmosphere was humidified and the CO2 concentration was fixed at 5 vol. %.
(§6) After 72 hours of incubation at 37° C. under normoxic or hypoxic conditions, with or without the compound to be tested, the medium was replaced by 100 μl of HBSS (without phenol red) containing MTT at a concentration of 0.5 or 1 mg/ml. The micro-wells were subsequently incubated during 3 hours and a half at 37° C. and centrifuged at 1300 rpm during 10 minutes. Medium was removed and formazan crystals formed were dissolved in 100 μl DMSO. The micro-wells were shaken for 5 minutes and read on a spectrophotometer at wavelengths of 570 nm (maximal formazan absorbance).
(§7) For each experimental condition, the mean optical density was calculated, allowing the determination of the percentage of living cells in comparison to the control.

siHa = assay: MTT test of overall cell growth, SiHa cervix cancer cells, normoxia or hypoxia; format: cell-based, human; conditions: for Selectivity: IC50 (normoxia)/IC50 (hypoxia 1% O2), if u.t.d., ratio of activity at 100 μM
Method: as §1, §2, §3, §4, §5, §6, §7

LoVo = assay: MTT test of overall cell growth, LoVo colorectal cancer cells, normoxia or hypoxia; format: cell-based, human; conditions: for Selectivity: IC50 (normoxia)/IC50 (hypoxia 1% O2), if u.t.d., ratio of activity at 100 μM
Method: as §1, §2, §3, §4, §5, §6, §7

MDA-MB-231 = assay: MTT test of overall cell growth, MDA-MB-231 breast cancer cells, normoxia or hypoxia; format: cell-based, human; conditions: for Selectivity: MDA-MB-231, IC50 (normoxia)/IC50 (hypoxia 1% O2), if u.t.d., ratio of activity at 100 μM
Method: as §1, §2, §3, §4, §5, §6, §7

U373 = assay: MTT test of overall cell growth, U373 glioma cells, normoxia or hypoxia; format: cell-based, human; conditions: for Selectivity: U373, IC50 (normoxia)/IC50 (hypoxia 1% O2), if u.t.d., ratio of activity at 100 μM
Method: as §1, §2, §3, §4, §5, §6, §7

PC3 = assay: MTT test of overall cell growth, PC3 prostate cancer cells, normoxia or hypoxia; format: cell-based, human; conditions: for Selectivity: PC3, IC50 (normoxia)/IC50 (hypoxia 1% O2), if u.t.d., ratio of activity at 100 μM
Method: as §1, §2, §3, §4, §5, §6, §7

MCF-7 = assay: MTT test of overall cell growth, MCF-7 breast cancer cells, normoxia or hypoxia; format: cell-based, human; conditions: for Selectivity: MCF-7, IC50 (normoxia)/IC50 (hypoxia 1% O2), if u.t.d., ratio of activity at 100 μM
Method: as §1, §2, §3, §4, §5, §6, §7

[2] = IC50 (normoxia)/IC50 (hypoxia 0.1%)
[3] = IC50 (normoxia)/IC50 (hypoxia 1%)
[4] = hypoxia 1% O2, 72 h, read-out: IC50 (μM) Hypoxia 1% O2
[5] = normoxia, 72 h, read-out: IC50 (μM) Normoxia
[6] = Homo sapiens, 72 h, hypoxia 0.1% O2, 72 h, read-out: IC50 (μM) Hypoxia 0.1%
[7] = Homo sapiens, 72 h, hypoxia 1% O2, 72 h, read-out: IC50 (μM) Hypoxia 1%
[8] = Homo sapiens, 72 h, normoxia, 72 h, series compared with hypoxia 0.1%, read-out: IC50 (μM) Normoxia
[9] = Homo sapiens, 72 h, normoxia, 72 h, series compared with hypoxia 1%, read-out: IC50 (μM) Normoxia
[10] = Homo sapiens, hypoxia 1% O2, 72 h, read-out: IC50 (μM) Hypoxia 1% O2
[11] = Homo sapiens, normoxia, 72 h, read-out: IC50 (μM) Normoxia
[12] = Homo sapiens, MDA-MB-231, hypoxia 1% O2, 72 h, read-out: IC50 (μM) Hypoxia 1% O2
[13] = Homo sapiens, U373 MG, U373, hypoxia 1% O2, 72 h, read-out: IC50 (μM) Hypoxia 1% O2
[14] = Homo sapiens, PC-3, PC3, hypoxia 1% O2, 72 h, read-out: IC50 (μM) Hypoxia 1% O2
[15] = Homo sapiens, MCF7, MCF-7, hypoxia 1% O2, 72 h, read-out: IC50 (μM) Hypoxia 1% O2

C[C@H]1CC[C@H]2[C@H](C1)c1c(c3ccccc3c3nc4cc(C(=O)N[C@@H](CO)Cc5ccccc5)ccc4nc13)OC2(C)C [Compound 17]
Selectivity [1, 2]: 134
Selectivity [1, 3]: 8
IC50 ([1]; hypoxia 0.1% O2, 72 h, read-out: IC50 (μM) Hypoxia 0.1%): 0.05 µM
IC50 ([1]; hypoxia 1% O2, 72 h, read-out: IC50 (μM) Hypoxia 1%): 0.63 µM
IC50 ([1]; normoxia, 72 h, series compared with hypoxia 0.1%, read-out: IC50 (μM) Normoxia): 6.25 µM
IC50 ([1]; normoxia, 72 h, series compared with hypoxia 1%, read-out: IC50 (μM) Normoxia): 5.18 µM
Selectivity (siHa): 7.12
IC50 (siHa; [4]): 10.5 µM
IC50 (siHa; [5]): 75 µM
Selectivity (LoVo): 1.04
IC50 (LoVo; [4]): 9.47 µM
IC50 (LoVo; [5]): 9.83 µM
IC50 (MDA-MB-231; MDA-MB-231, hypoxia 1% O2, 72 h, read-out: IC50 (μM) Hypoxia 1% O2): 11.4 µM
IC50 (MDA-MB-231; MDA-MB-231, normoxia, 72 h, read-out: IC50 (μM) Normoxia): 13.4 µM
Selectivity (MDA-MB-231): 1.17
IC50 (U373; U373, hypoxia 1% O2, 72 h, read-out: IC50 (μM) Hypoxia 1% O2): 1.23 µM
IC50 (U373; U373, normoxia, 72 h, read-out: IC50 (μM) Normoxia): 6.97 µM
Selectivity (U373): 5.65
IC50 (PC3; PC3, hypoxia 1% O2, 72 h, read-out: IC50 (μM) Hypoxia 1% O2): 11.1 µM
IC50 (PC3; PC3, normoxia, 72 h, read-out: IC50 (μM) Normoxia): 10.4 µM
Selectivity (PC3): 0.94
IC50 (MCF-7; MCF-7, hypoxia 1% O2, 72 h, read-out: IC50 (μM) Hypoxia 1% O2): 11.1 µM
IC50 (MCF-7; MCF-7, normoxia, 72 h, read-out: IC50 (μM) Normoxia): 12.2 µM
Selectivity (MCF-7): 1.10

COC(=O)c1ccc2nc3c(nc2c1)c1c(c2ccccc23)OC(C)(C)[C@H]2CC[C@H](C)C[C@H]12 [Compound 11′]
IC50 [1, 6]: 13.6 µM
IC50 [1, 7]: 11.8 µM
IC50 [1, 8]: 225 µM
IC50 [1, 9]: 176 µM
Selectivity [1, 2]: 16.5
Selectivity [1, 3]: 15
IC50 (siHa; [10]): 132 µM
Selectivity (siHa): >1.72^b
IC50 (μM) Normoxia (siHa; normoxia, 72 h): u.t.d.
IC50 (LoVo; [10]): 154 µM
IC50 (LoVo; [11]): 220 µM
Selectivity (LoVo): 1.43
IC50 (MDA-MB-231; [12]): 136 µM
IC50 (μM) Normoxia (MDA-MB-231; MDA-MB-231, normoxia, 72 h): u.t.d.
Selectivity (MDA-MB-231): >1.67^b
IC50 (U373; [13]): 74.9 µM
IC50 (μM) Normoxia (U373; U373, normoxia, 72 h): u.t.d.
Selectivity (U373): >3.03^b
IC50 (PC3; [14]): 161 µM
IC50 (μM) Normoxia (PC3; PC3, normoxia, 72 h): u.t.d.
Selectivity (PC3): >1.41^b
IC50 (MCF-7; [15]): 150 µM
IC50 (μM) Normoxia (MCF-7; MCF-7, normoxia, 72 h): u.t.d.
Selectivity (MCF-7): >1.52^b

COc1ccc(CNC(=O)c2ccc3nc4c5c(c6ccccc6c4nc3c2)OC(C)(C)[C@H]2CC[C@H](C)C[C@H]52)c(OC)c1 [Compound 16]
IC50 [1, 6]: 0.09 µM
IC50 [1, 7]: 14.4 µM
IC50 [1, 8]: 129 µM
IC50 [1, 9]: 42.6 µM
Selectivity [1, 2]: 1480
Selectivity [1, 3]: 3
IC50 (siHa; [10]): 138 µM
Selectivity (siHa): >1.92^b
IC50 (μM) Normoxia (siHa; normoxia, 72 h): u.t.d.
IC50 (LoVo; [11]): 210 µM
Selectivity (LoVo): <0.79^b
IC50 (μM) Hypoxia 1% O2 (LoVo; hypoxia 1% O2, 72 h): u.t.d.
IC50 (MDA-MB-231; [12]): 230 µM
IC50 (μM) Normoxia (MDA-MB-231; MDA-MB-231, normoxia, 72 h): u.t.d.
Selectivity (MDA-MB-231): >1.16^b
IC50 (U373; [13]): 234 µM
IC50 (μM) Normoxia (U373; U373, normoxia, 72 h): u.t.d.
Selectivity (U373): >1.14^b
IC50 (μM) Hypoxia 1% O2 (PC3; PC3, hypoxia 1% O2, 72 h): u.t.d.
IC50 (μM) Normoxia (PC3; PC3, normoxia, 72 h): u.t.d.
IC50 (MCF-7; [15]): 164 µM
IC50 (μM) Normoxia (MCF-7; MCF-7, normoxia, 72 h): u.t.d.
Selectivity (MCF-7): >1.63^b

C[C@H]1CC[C@H]2[C@H](C1)c1c(c3ccccc3c3nc4cc(C(=O)N5CCOCC5)ccc4nc13)OC2(C)C (racemic) [Compound 12]
IC50 [1, 6]: 0.14 µM
IC50 [1, 7]: 0.4 µM
IC50 [1, 8]: 8.27 µM
IC50 [1, 9]: 5.65 µM
Selectivity [1, 2]: 58
Selectivity [1, 3]: 14
IC50 (siHa; [10]): 1.13 µM
IC50 (siHa; [11]): 19.8 µM
Selectivity (siHa): 17.50
IC50 (LoVo; [10]): 1.31 µM
IC50 (LoVo; [11]): 9.69 µM
Selectivity (LoVo): 7.38
IC50 (MDA-MB-231; [12]): 1.27 µM
IC50 (MDA-MB-231; Homo sapiens, MDA-MB-231, normoxia, 72 h, read-out: IC50 (μM) Normoxia): 30.3 µM
Selectivity (MDA-MB-231): 23.81
IC50 (U373; [13]): 0.14 µM
IC50 (U373; Homo sapiens, U373 MG, U373, normoxia, 72 h, read-out: IC50 (μM) Normoxia): 10.6 µM
Selectivity (U373): 75.00
IC50 (PC3; [14]): 1.31 µM
IC50 (PC3; Homo sapiens, PC-3, PC3, normoxia, 72 h, read-out: IC50 (μM) Normoxia): 14.7 µM
Selectivity (PC3): 11.23
IC50 (MCF-7; [15]): 1.45 µM
IC50 (MCF-7; Homo sapiens, MCF7, MCF-7, normoxia, 72 h, read-out: IC50 (μM) Normoxia): 8.07 µM
Selectivity (MCF-7): 5.56
